Values after ≈ are worked out from the molar mass of the structure shown.
Experiments:
BT-549 = experiment: Cytotoxicity assay (Borenfreund method, 48 h); format: cell-based; settings: Homo sapiens, NA = no cytotoxic activity upto 100 µg/mL, read-out: Cancer cells IC50, BT-549
Experimental: (§1) Four human cancer cell lines (SK-OV-3, SK-MEL, BT-549 and KB) and two noncancerous kidney cell lines (VERO and LLC-PK1) were measured in the in vitro cytotoxic study. Test samples were added on the cell lines with variable concentrations, followed by 48 h incubation. According to the Borenfreund method, the cell viability was determined at the end of incubation, using doxorubicin as a positive control.

SK-MEL = experiment: Cytotoxicity assay (Borenfreund method, 48 h); format: cell-based; settings: Homo sapiens, NA = no cytotoxic activity upto 100 µg/mL, read-out: Cancer cells IC50, SK-MEL
Experimental: as §1

KB = experiment: Cytotoxicity assay (Borenfreund method, 48 h); format: cell-based; settings: Homo sapiens, NA = no cytotoxic activity upto 100 µg/mL, read-out: Cancer cells IC50, KB
Experimental: as §1

VERO = experiment: Cytotoxicity assay (Borenfreund method, 48 h); format: cell-based; settings: Chlorocebus sabaeus, NA = no cytotoxic activity upto 100 µg/mL, read-out: Noncancer cells IC50, VERO
Experimental: as §1

LLC-PK11 = experiment: Cytotoxicity assay (Borenfreund method, 48 h); format: cell-based; settings: NA = no cytotoxic activity upto 100 µg/mL, read-out: Noncancer cells IC50, LLC-PK11
Experimental: as §1

SK-OV-3 = experiment: Cytotoxicity assay (Borenfreund method, 48 h); format: cell-based; settings: Homo sapiens, NA = no cytotoxic activity upto 100 µg/mL, read-out: Cancer cells IC50, SK-OV-3
Experimental: as §1

[1] = tested on: Bacillus cereus (ATCC 14579); experiment: Antibacterial well diffusion; format: cell-based; settings: 10 µL per well, mean ± SD
[2] = tested on: Pseudomonas aeruginosa (ATCC 27853); experiment: Antibacterial broth microdilution (MIC); format: cell-based; settings: ATCC27853, read-out: MIC, P. aeruginosa
Excerpt: (§2) (CP017183.1), Escherichia fergusonii (CU928158.2), and Pseudomonas aeruginosa (NR-117678.1) and Gram-positive Staphylococcus aureus (CP011526.1) and Bacillus licheniformis (KX785171.1) using well diffusion and broth microdilution techniques as described by Berghe and […] [16]. The bacterial strains were suspended in a nutrient broth for 24 hr, and the suspension then spread on Mueller-Hinton agar. […] Amikacin was used as the positive control.

[3] = tested on: Escherichia fergusonii (CU928158.2); experiment: Antibacterial broth microdilution (MIC); format: cell-based; settings: read-out: MIC, E. fergusonii
Excerpt: as §2

[4] = tested on: Klebsiella pneumonia (ATCC 700603); experiment: Antibacterial broth microdilution (MIC); format: cell-based; settings: Klebsiella pneumoniae, ATCC700603, read-out: MIC, K. pneumonia
Excerpt: as §2

Staphylococcus aureus [5] = experiment: Antibacterial broth microdilution (MIC); format: cell-based; settings: read-out: MIC, S. aureus
Excerpt: as §2

[6] = tested on: Pseudomonas aeruginosa (ATCC 27853); experiment: Antibacterial well diffusion; format: cell-based; settings: 10 µL per well, mean ± SD
Excerpt: as §2

[7] = tested on: Escherichia fergusonii (CU928158.2); experiment: Antibacterial well diffusion; format: cell-based; settings: 10 µL per well, mean ± SD
Excerpt: as §2

[8] = tested on: Klebsiella pneumonia (ATCC 700603); experiment: Antibacterial well diffusion; format: cell-based; settings: 10 µL per well, mean ± SD
Excerpt: as §2

Staphylococcus aureus [9] = experiment: Antibacterial well diffusion; format: cell-based; settings: 10 µL per well, mean ± SD
Excerpt: as §2

[10] = tested on: Bacillus cereus (ATCC 14579); experiment: Antibacterial broth microdilution (MIC); format: cell-based; settings: ATCC14579, read-out: MIC, B. cereus
PPARγ = biological target: T1, PPARγ (Homo sapiens, UniProt P37231); experiment: PPARγ reporter gene assay (luciferase fold induction); format: cell-based; settings: control drug at 10 µM; read-out: Fold induction PPAR gamma
T1 construct: expressed in transfected cells
T1 sequence (P37231 1-505): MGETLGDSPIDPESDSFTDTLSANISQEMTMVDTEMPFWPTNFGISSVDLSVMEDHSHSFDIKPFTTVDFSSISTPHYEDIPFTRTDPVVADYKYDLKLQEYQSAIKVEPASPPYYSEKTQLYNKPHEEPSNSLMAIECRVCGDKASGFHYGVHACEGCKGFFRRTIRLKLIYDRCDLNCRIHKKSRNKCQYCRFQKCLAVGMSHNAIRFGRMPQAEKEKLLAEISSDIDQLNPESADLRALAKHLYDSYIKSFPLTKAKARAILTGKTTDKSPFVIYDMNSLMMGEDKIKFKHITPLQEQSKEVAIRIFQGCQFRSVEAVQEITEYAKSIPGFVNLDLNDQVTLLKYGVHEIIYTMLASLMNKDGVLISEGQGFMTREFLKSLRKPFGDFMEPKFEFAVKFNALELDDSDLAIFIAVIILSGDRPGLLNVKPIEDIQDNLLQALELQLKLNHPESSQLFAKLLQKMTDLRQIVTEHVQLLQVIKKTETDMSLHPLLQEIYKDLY
Experimental: A reporter gene assay was carried out as described previously. Briefly, upon confluency, the different concentrations of the test samples were exposed to transfected cells for 24 hrs. Vehicle control was taken into consideration when the fold induction in luciferase activity was calculated. Both rosiglitazone and ciprofibrate were used as control drugs for PPARα and PPARγ, respectively.
Fold induction in the PPAR activity was detected in response to the methanol fraction and pure compounds according to untreated controls. A fold induction of 1.5 means a 50% increase in PPAR activity. […] Several studies have been carried out with the aim of exploring the potential of selective PPARγ modulators. The dual activator effect of P2 is in agreement with previous literature.

iNOS = iNOS inhibition, nitrite level in LPS-treated macrophages (Griess); format: cell-based, mouse; settings: Mus musculus; RAW264.7, LPS 5 µg/mL, 24 h; NA = no activity up to 100 µg/mL
Experimental: Mouse macrophage (RAW264.7) cells were seeded in the wells of 96-well plates followed by 24 hrs for confluency according to the method described previously. The test samples were treated with LPS (5 μg/mL) and followed by 24-hour incubation as well. The nitrite level in cell supernatant was measured by Griess reagent. The dose response curves gave indication for IC50 values. Parthenolide was used as positive control.

NF-κB = NF-κB luciferase reporter gene assay in PMA-treated SW1353 cells; format: cell-based; settings: Homo sapiens; SW1353, PMA 70 ng/mL 8 h; NA = no activity up to 100 µg/mL; read-out: NF-kB inhibition (IC50)
Experimental: According to the method described earlier, the 96-well plates with density of 1.25 × 10^5 cells per well were seeded with human chondrosarcoma cells (SW1353) transfected with NF-κB luciferase plasmid construct. After incubation for 24 h, cells were treated with the test samples for half an hour followed by PMA (70 ng/mL) for 8 h. Luciferase assay kit (Promega, Madison, WI, USA) was used for determination of luciferase activity, and parthenolide was used as the positive control in this test.

Q: What does the source list for `COc1cccc2c1C(=O)c1c(O)c3c(c(O)c1C2=O)C[C@@](O)(C(=O)CO)C[C@@H]3O[C@H]1C[C@H](N)[C@H](O)[C@H](C)O1` [Doxorubicin]?
A: IC50 (BT-549): 1.93 µg/mL (≈ 3.55 µM); IC50 (SK-MEL): 1.23 µg/mL (≈ 2.26 µM); IC50 (KB): 1.85 µg/mL (≈ 3.4 µM); IC50 (VERO): > 5 µg/mL; IC50 (LLC-PK11): 0.85 µg/mL (≈ 1.56 µM); IC50 (SK-OV-3): 0.8 µg/mL (≈ 1.47 µM)

Q: What does the source list for `NCC[C@H](O)C(=O)N[C@@H]1C[C@H](N)[C@@H](O[C@H]2O[C@H](CN)[C@@H](O)[C@H](O)[C@H]2O)[C@H](O)[C@H]1O[C@H]1O[C@H](CO)[C@@H](O)[C@H](N)[C@H]1O` [AMK, Amikacin, reference compound]?
A: ZOI diameter, B. cereus [1]: 20 ± 0.9 mm; MIC [2]: 8 µg/mL (≈ 13.7 µM); MIC [3]: 4.5 µg/mL (≈ 7.68 µM); MIC [4]: 5 µg/mL (≈ 8.54 µM); MIC (Staphylococcus aureus [5]): 6.2 µg/mL (≈ 10.6 µM); ZOI diameter, P. aeruginosa [6]: 18 ± 1.3 mm; ZOI diameter, E. fergusonii [7]: 24 ± 1.5 mm; ZOI diameter, K. pneumonia [8]: 25 ± 0.8 mm; ZOI diameter, S. aureus (Staphylococcus aureus [9]): 24 ± 1 mm; MIC [10]: 7.3 µg/mL (≈ 12.5 µM)

Q: `CN(CCOc1ccc(CC2SC(=O)NC2=O)cc1)c1ccccn1` (stereo not shown) [Rosiglitazone, reference compound] was tested. Which fold induction at 10 µM (PPARγ) did it give?
A: The fold induction at 10 µM was 3.7.

Q: `C=C1C(=O)O[C@H]2[C@H]1CC/C(C)=C/CC[C@@]1(C)O[C@@H]21` [Parthenolide, reference compound] was tested. Which IC50 (iNOS) did it give?
A: Its IC50 is 0.35 ± 0.22 µg/mL (≈ 1.41 µM).

Q: And the IC50 (NF-κB)?
A: The IC50 was 0.5 ± 0.21 µg/mL (≈ 2.01 µM).
